The METLIN SMRT retention time set (Domingo-Almenara et al. 2019)

Test: gradient 5% acetonitrile 3 min, to 50% in 2 min, to 85% in 15 min, held 3 min, 100 µL/min
Conditions: column: Zorbax Extend-C18 2.1 x 50 mm; eluents: water / acetonitrile, 0.1% formic acid
In short: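 Retention time was recorded from adduct peaks, which were picked computationally and each inspected manually. Pure standards ran in mixtures of ~100 molecules on HPLC coupled to a quadrupole time-of-flight mass spectrometer, in positive and negative ionization mode, through a Zorbax Extend-C18 column (2.1 × 50 mm, 1.8 μm) at 100 μL/min. Eluents were water and acetonitrile, each with 0.1% formic acid.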

Row | SMILES | RP-LC retention time [s]
1 | COc1ccccc1C(=O)Nc1cccn2nc(C3CCC3)nc12 | 1140
2 | Cc1nc2cc3c(cc2n1CC(=O)NCc1ccc(F)cc1)OCCO3 | 636
3 | Cc1c(C(=O)C(=O)NCc2ccccn2)c2ccccc2n1C | 625
4 | CCN1CCN(S(=O)(=O)c2cc(-c3nnc(-c4ccc(OC)c(OC)c4)o3)ccc2C)CC1 | 1180
5 | COc1ccccc1C(O)Cn1ccn2nc(-c3ccc(C)c(C)c3)cc2c1=O (configuration not stated) | 982
6 | Cc1nc(C(=O)Nc2ccccc2)c(C)o1 | 809
7 | Cc1cccc(-c2nc(Cn3ccnc3)no2)c1 | 600
8 | CCCCN(C)c1ccc(NC(=O)Cc2cccs2)c(C(=O)O)c1 | 759
9 | O=S(=O)(NCC#CCN1CCc2ccccc2C1)c1cccs1 | 558
10 | OC[C@H]1OC(n2cnc3c(N[C@H]4CCC[C@@H]4O)ncnc32)[C@H](O)[C@@H]1O (some centres not stated) | 551
11 | CN(C)CC/C=C1/c2ccccc2COc2ccccc21 | 760
12 | CCCN(C(=O)Nc1ccc(CC)cc1)c1nc(-c2ccc(Br)cc2)cs1 | 660
13 | COc1ccc(C)cc1NC(=O)Cn1cnc2c(sc3nc(-c4ccccc4)ccc32)c1=O | 1090
14 | O=c1ccc(-c2ccc3c(c2)OCO3)nn1CCc1nc(-c2ccc(F)c(Br)c2)no1 | 1030
15 | CC(Cc1ccco1)NC(=O)CN1C(=O)C2CCCCN2c2ccc(S(=O)(=O)N(C)C)cc21 (configuration not stated) | 879
16 | COc1ccc(-c2nc3cc(C)ccn3c2NC(=O)c2cccc(C(F)(F)F)c2)cc1OC | 729
17 | CCn1cc(CCN2CCN(S(=O)(=O)c3cc(C)cc(C)c3)CC2)c2cccnc21 | 698
18 | Cc1nc(N)n(CC(=O)NCc2ccc(F)cc2)c(=O)c1C | 842
19 | Cc1cc(C)c(NC(=O)Cn2cccc(-c3nc(-c4ccc(Br)cc4)no3)c2=O)c(C)c1 | 1030
20 | CNCCC(Oc1ccccc1OC)c1ccccc1 (configuration not stated) | 734
21 | CCc1nnc(-c2ccc3ccn(CC(=O)NCc4ccc(N(C)C)cc4)c3c2)o1 | 640
22 | O=C1[C@H]2CN(Cc3ccccc3F)C[C@H]2C(=O)N1CCc1ccccc1 | 781
23 | CCc1ccc(NS(=O)(=O)c2cc(-c3ccn[nH]3)sc2C)cc1 | 854
24 | CCOC(=O)c1cc(-c2ccc(S(=O)(=O)N3CCN(c4ccccn4)CC3)s2)on1 | 809

Now from value to compound:

Row | RP-LC retention time [s] | SMILES
25 | 682 | O=C(CC(F)(F)F)N1CCCC(CCc2nnc(C3CCOCC3)o2)C1 (configuration not stated)
26 | 689 | O=C(c1ccncc1)N1CCCCC1c1nc(-c2ccncc2)no1 (configuration not stated)
27 | 732 | Nc1cc(C2CCN(S(=O)(=O)Cc3ccccc3)CC2)no1
28 | 1180 | CC(C)Cc1nc(N2CCN(C(=O)c3ccco3)CC2)c(C#N)c2c1COC(C)(C)C2
29 | 868 | O=C(NCCc1cccs1)c1cc2n(n1)CCCN(Cc1ccc(F)cc1)C2=O
30 | 855 | COc1ccc(Cl)cc1S(=O)(=O)N1CCCC(C(=O)NCCCOC(C)C)C1 (configuration not stated)
31 | 884 | CCOC(=O)CCNC(=O)C1CCCN(c2nccnc2Oc2ccc(C)cc2)C1 (configuration not stated)
32 | 609 | O=C(Nc1ccc(-c2nnc3n2CCCC3)cc1)C1CC1
33 | 713 | CCC(C)NC(=O)Cn1ccc2ccc(-c3nnc(C)o3)cc21 (configuration not stated)
34 | 720 | Cc1[nH]c(C)c(S(=O)(=O)N2CCC(C(=O)Nc3cccc(F)c3)CC2)c1C(=O)N1CCCC1
35 | 905 | CCCCN(CCCC)C(=O)C1CCN(S(=O)(=O)c2ccc3c(c2)CCCC(=O)N3)CC1
36 | 643 | O=C(COc1ccc(Cl)cc1)N1CCN(c2nc(CN3CCOCC3)cs2)CC1
37 | 635 | Cc1nc(-c2ccc(C(=O)N3CCOCC3)cc2)no1
